Like-named read-outs stand apart in the source and are kept apart here.
What was measured:
IL-1β [1] = assay: In-vivo LPS and ATP induced IL-1β assay; details: Mus musculus, 2.5 h; Dose 10 mpk, po; female C57 mice; serum IL-1β by ELISA; read-out: % IL-1β inhibition in LPS + ATP challenged C57 mice
Procedure: All the animal experiments were carried out in female rats and mice, bred in-house. Animals were housed in groups of 6 animals per cage, for a week, in order to habituate them to vivarium conditions (25 f 4° C., 60-65% relative humidity, 12:12 h light:dark cycle, with lights on at 7.30 am). All the animal experiments were carried out according to the internationally valid guidelines following approval by the ‘Zydus Research Center animal ethical committee’.
Female C57 mice (6-8 weeks) received intraperitoneal injection of 50 μg/mouse of lipopolysaccharide (LPS) in PBS. Animals were treated immediately with the test compounds or the vehicle. After 2 h of LPS injection, animals were administered with ATP at 12.5 mg/mouse dissolved in PBS via intraperitoneal route. After 30 minutes of ATP injection, serum was collected for IL-1β estimation by ELISA.

IL-1β [2] = assay: In-vitro IL-1β inhibition assay in PMA-differentiated, LPS-primed, ATP-stimulated THP1 cells; type: cell-based; details: Homo sapiens
Procedure: THP1 monocytes were differentiated with PMA (100 ng/mL) and incubated at 37 deg C. for 20 hrs in presence of 5% CO2. 2×10^5 differentiated cells were plated per well of 96 well tissue culture plates. The cells were primed using 500 ng/mL Lipopolysaccharide and incubating for 4 h under the same condition. The cells were then treated with various concentrations of the compounds for 30 min followed by treatment with 5 mM ATP for 1 hr. The supernatants were collected and analyzed by IL-1b (Mabtech Cat #3415-1H-20) or TNF-α (Mabtech; Cat #3510-1H-20) detection kit. The data were analyzed using GraphPad Prism V7.0. Dose Response Curve (DRC) was constructed to determine the IC50 value by fitting percentage […] data to the GraphPad Prism using nonlinear regression analysis.

[3] = THP-1, THP1 monocytes differentiated with PMA, primed with 500 ng/mL LPS, compound 30 min, 5 mM ATP 1 hr, IL-1β in supernatant, read-out: IC50 (nM), invitro IL-1β inhibitory activity
[4] = THP-1, read-out: IC50 (nM), invitro IL-1β inhibitory activity

Work on O=C(Nc1c2c(cc3c1CCC3)CCC2)NS(=O)(=O)/C=C/[C@H]1CCCN1CC1CC1 [Example 5, (R,E)-2-(1-(cyclopropylmethyl)pyrrolidin-2-yl)-N-((1,2,3,5,6,7-hexahydro-s-indacen-4-yl)carbamoyl)ethene-1-sulfonamide] yielded an inhibition in vivo at 10 mg/kg (IL-1β [1]) of 70%.
For CC(=O)N1CCC[C@@H]1/C=C/S(=O)(=O)NC(=O)Nc1c2c(cc3c1CCC3)CCC2 [Example 8, (R,E)-2-(1-acetylpyrrolidin-2-yl)-N-((1,2,3,5,6,7-hexahydro-s-indacen-4-yl)carbamoyl)-ethene-1-sulfonamide], the IC50 (IL-1β [2]; [3]) was 10.7 nM.
CC(C)(C)OC(=O)N1CCC[C@@H]1/C=C/S(=O)(=O)NC(=O)Nc1c2c(cc3c1CCC3)CCC2 [Example 10, tert-butyl (R,E)-2-(2-(N-((1,2,3,5,6,7-hexahydro-s-indacen-4-yl)carbamoyl)sulfamoyl)-vinyl)pyrrolidine-1-carboxylate] was tested, and the IC50 (IL-1β [2]; [3]) was 64 nM.
For O=C(Nc1c2c(cc3c1CCC3)CCC2)NS(=O)(=O)/C=C/[C@H]1CCCN1S(=O)(=O)c1cccc(F)c1 [Example 13, (R,E)-2-(1-((3-fluorophenyl)sulfonyl)pyrrolidin-2-yl)-N-((1,2,3,5,6,7-hexahydro-s-indacen-4-yl)carbamoyl)ethenesulfonamide], the IC50 (IL-1β [2]; [3]) was 9 nM.
O=C(Nc1c2c(cc3c1CCC3)CCC2)NS(=O)(=O)/C=C/[C@H]1CCCN1C(=O)c1cnccn1 [Example 14, (R,E)-N-((1,2,3,5,6,7-hexahydro-s-indacen-4-yl)carbamoyl)-2-(1-(pyrazine-2-carbonyl)pyrrolidin-2-yl)ethenesulfonamide] was tested, and the IC50 (IL-1β [2]; [3]) was 17 nM.
CCS(=O)(=O)N1CCC[C@@H]1/C=C/S(=O)(=O)NC(=O)Nc1c2c(cc3c1CCC3)CCC2 [Example 21, (R,E)-2-(1-(ethylsulfonyl)pyrrolidin-2-yl)-N-((1,2,3,5,6,7-hexahydro-s-indacen-4-yl)carbamoyl)ethene-1-sulfonamide] was tested, and the IC50 (IL-1β [2]; [3]) was 2.4 nM.
In the case of CC(C)N1CCC[C@@H]1/C=C/S(=O)(=O)NC(=O)Nc1c2c(cc3c1CCC3)CCC2 [Example 22, (R,E)-N-((1,2,3,5,6,7-hexahydro-s-indacen-4-yl)carbamoyl)-2-(1-isopropylpyrrolidin-2-yl)ethene-1-sulfonamide], the inhibition in vivo at 10 mg/kg (IL-1β [1]) is reported as 83%.
Compound CS(=O)(=O)CCCN1CCC[C@@H]1/C=C/S(=O)(=O)NC(=O)Nc1c2c(cc3c1CCC3)CCC2 [Example 23, (R,E)-N-((1,2,3,5,6,7-hexahydro-s-indacen-4-yl)carbamoyl)-2-(1-(3-(methylsulfonyl)propyl)pyrrolidin-2-yl)ethenesulfonamide] has an IC50 (IL-1β [2]; [3]) of 14 nM.
Compound O=C(Nc1c2c(cc3c1CCC3)CCC2)NS(=O)(=O)/C=C/[C@H]1CCCN1C1CCSCC1 [Example 40, (R,E)-N-((1,2,3,5,6,7-hexahydro-s-indacen-4-yl)carbamoyl)-2-(1-(tetrahydro-2H-thiopyran-4-yl)pyrrolidin-2-yl)ethene-1-sulfonamide] has an inhibition in vivo at 10 mg/kg (IL-1β [1]) of 86%.
For C[C@]1(/C=C/S(=O)(=O)NC(=O)Nc2c3c(cc4c2CCC4)CCC3)CCCN1S(C)(=O)=O [Example 55, (R,E)-N-((1,2,3,5,6,7-hexahydro-s-indacen-4-yl)carbamoyl)-2-(2-methyl-1-(methylsulfonyl)-pyrrolidin-2-yl)ethene-1-sulfonamide], the inhibition in vivo at 10 mg/kg (IL-1β [1]) was 82.5%.
O=C(Nc1c2c(cc3c1CCC3)CCC2)NS(=O)(=O)/C=C/[C@@H]1CCCN1S(=O)(=O)c1cccnc1 [Example 63, (S,E)-N-((1,2,3,5,6,7-hexahydro-s-indacen-4-yl)carbamoyl)-2-(1-(pyridin-3-ylsulfonyl)-pyrrolidin-2-yl)ethenesulfonamide] was tested, and the IC50 (IL-1β [2]; [3]) was 8 nM.
O=C(Nc1c2c(cc3c1CCC3)CCC2)NS(=O)(=O)/C=C/C1CCOCC1 [Example 71, (E)-N-((1,2,3,5,6,7-hexahydro-s-indacen-4-yl)carbamoyl)-2-(tetrahydro-2H-pyran-4-yl)ethenesulfonamide] showed an IC50 (IL-1β [2]; [3]) of 87 nM.
CS(=O)(=O)N1CCCC(/C=C/S(=O)(=O)NC(=O)Nc2c3c(cc4c2CCC4)CCC3)C1 (stereo not drawn) [Example 84, (E)-N-((1,2,3,5,6,7-hexahydro-s-indacen-4-yl)carbamoyl)-2-(1-(methylsulfonyl)piperidin-3-yl)ethenesulfonamide] gave an IC50 (IL-1β [2]; [3]) of 8.5 nM.
For O=C(Nc1c2c(cc3c1CCC3)CCC2)NS(=O)(=O)/C=C/[C@@H]1CCCN1S(=O)(=O)c1ccc(Cl)s1 [Example 90, (S,E)-2-(1-((5-chlorothiophen-2-yl)sulfonyl)pyrrolidin-2-yl)-N-((1,2,3,5,6,7-hexahydro-s-indacen-4-yl)carbamoyl)ethenesulfonamide], the IC50 (IL-1β [2]; [3]) was 16 nM.
Work on O=C(Nc1c2c(cc3c1CCC3)CCC2)NS(=O)(=O)/C=C/[C@@H]1CCCN1S(=O)(=O)Cc1ccccc1 [Example 91, (S,E)-2-(1-(benzylsulfonyl)pyrrolidin-2-yl)-N-((1,2,3,5,6,7-hexahydro-s-indacen-4-yl)carbamoyl)ethenesulfonamide] yielded an IC50 (IL-1β [2]; [3]) of 2.9 nM.
O=C(Nc1c2c(cc3c1CCC3)CCC2)NS(=O)(=O)/C=C/C1CCCCN1 (stereo not drawn) [Example 100, (E)-N-((1,2,3,5,6,7-hexahydro-s-indacen-4-yl)carbamoyl)-2-(piperidin-2-yl)ethene-1-sulfonamide] showed an IC50 (IL-1β [2]; [3]) of 70 nM.
For C[C@@]1(/C=C/S(=O)(=O)NC(=O)Nc2c3c(cc4c2CCC4)CCC3)CCCN1 [Example 105, (S,E)-N-((1,2,3,5,6,7-hexahydro-s-indacen-4-yl)carbamoyl)-2-(2-methylpyrrolidin-2-yl)ethene-1-sulfonamide], the IC50 (IL-1β [2]; [3]) was 61 nM.
CC(C)(C)OC(=O)N1CCC[C@@]1(C)/C=C/S(=O)(=O)NC(=O)Nc1c2c(cc3c1CCC3)CCC2 [Example 111, tert-butyl(S,E)-2-(2-(N-((1,2,3,5,6,7-hexahydro-s-indacen-4-yl)carbamoyl)sulfamoyl)vinyl)-2-methylpyrrolidine-1-carboxylate] showed an IC50 (IL-1β [2]; [3]) of 4.3 nM.
Work on CC(=O)N1CCC1/C=C/S(=O)(=O)NC(=O)Nc1c2c(cc3c1CCC3)CCC2 (stereo not drawn) [Example 125, (E)-2-(1-acetylazetidin-2-yl)-N-((1,2,3,5,6,7-hexahydro-s-indacen-4-yl)carbamoyl)ethene-1-sulfonamide] yielded an IC50 (IL-1β [2]; [3]) of 16.4 nM.
In the case of C=CCN1CCC[C@H]1/C=C/S(=O)(=O)NC(=O)Nc1c2c(cc3c1CCC3)CCC2 [Example 127, (S,E)-2-(1-allylpyrrolidin-2-yl)-N-((1,2,3,5,6,7-hexahydro-s-indacen-4-yl)carbamoyl)ethene-1-sulfonamide], the IC50 (IL-1β [2]; [3]) is reported as 5.6 nM.
C[C@@]1(/C=C/S(=O)(=O)NC(=O)Nc2c3c(cc4c2CCC4)CCC3)CCCN1S(=O)(=O)C1CC1 [Example 129, (S,E)-2-(1-(cyclopropylsulfonyl)-2-methylpyrrolidin-2-yl)-N-((1,2,3,5,6,7-hexahydro-s-indacen-4-yl)carbamoyl)ethene-1-sulfonamide] showed an IC50 (IL-1β [2]; [3]) of 5.9 nM.
CC(C)(C)OC(=O)N1CC2CC(N3CCC[C@@H]3/C=C/S(=O)(=O)NC(=O)Nc3c4c(cc5c3CCC5)CCC4)CC2C1 (stereo partly drawn) [Example 131, tert-butyl 5-((R)-2-((E)-2-(N-((1,2,3,5,6,7-hexahydro-s-indacen-4-yl)carbamoyl)sulfamoyl)vinyl)pyrrolidin-1-yl)hexahydrocyclopenta[c]pyrrole-2 (1H)-carboxylate] showed an IC50 (IL-1β [2]; [3]) of 16 nM.
O=C(Nc1c2c(cc3c1CCC3)CCC2)NS(=O)(=O)/C=C/[C@H]1CCCN1C1CCSCC1 [Example 139, Sodium(R,E)-((1,2,3,5,6,7-hexahydro-s-indacen-4-yl)carbamoyl)((2-(1-(tetrahydro-2H-thiopyran-4-yl)pyrrolidin-2-yl)vinyl)sulfonyl)amide] showed an IC50 (IL-1β [2]; [4]) of 21 nM.
With CN1CCC[C@@]1(C)/C=C/S(=O)(=O)NC(=O)Nc1c2c(cc3c1CCC3)CCC2 [Example 144, sodium(S,E)-((2-(1,2-dimethylpyrrolidin-2-yl)vinyl)sulfonyl)((1,2,3,5,6,7-hexahydro-s-indacen-4-yl)carbamoyl)amide] the IC50 (IL-1β [2]; [4]) was 8.6 nM.
CC(C)(C)OC(=O)N1CCC1(C)/C=C/S(=O)(=O)NC(=O)Nc1c2c(cc3c1CCC3)CCC2 (stereo not drawn) [Example 147, tert-butyl(E)-2-(2-(N-((1,2,3,5,6,7-hexahydro-s-indacen-4-yl)carbamoyl)sulfamoyl)vinyl)-2-methylazetidine-1-carboxylate] gave an IC50 (IL-1β [2]; [4]) of 11 nM.
In the case of CC[C@@]1(/C=C/S(=O)(=O)NC(=O)Nc2c3c(cc4c2CCC4)CCC3)CCCN1C(=O)OC(C)(C)C [Example 149, tert-butyl(S,E)-2-ethyl-2-(2-(N-((1,2,3,5,6,7-hexahydro-s-indacen-4-yl)carbamoyl)sulfamoyl)vinyl)pyrrolidine-1-carboxylate], the IC50 (IL-1β [2]; [4]) is reported as 11 nM.
In the case of CN1CCC[C@@]1(C)/C=C/S(=O)(=O)NC(=O)Nc1cc2c(c3c1CCC3)CCC2 [Example 153, (S,E)-2-(1,2-dimethylpyrrolidin-2-yl)-N-((1,2,3,6,7,8-hexahydro-as-indacen-4-yl)carbamoyl)ethene-1-sulfonamide], the IC50 (IL-1β [2]; [4]) is reported as 32 nM.

Source: patent US12084416B2, “Substituted sulfonylurea derivatives” (Zydus Lifesciences Limited, priority 2019, dated 2024)
